{
  "source": "PubChem BioAssay AID1259407",
  "about": "(Chemical Carcinogenesis Research Information System (CCRIS), 2018)",
  "tested_on": "CCRIS mutagenicity, Ames/micronucleus/aberration tests",
  "experiment": "CCRIS mutagenicity studies",
  "key": {"[1]": {"details": "Test System: AMES SALMONELLA TYPHIMURIUM, Strain/Indicator: TA98, Metabolic Activation: NONE, Method: STANDARD PLATE"}, "[2]": {"details": "Test System: AMES SALMONELLA TYPHIMURIUM, Strain/Indicator: TA100, Metabolic Activation: NONE, Method: STANDARD PLATE"}},
  "note": "Calls of active or inactive are those of the source. No rule for the calls is given here.",
  "data": [
    {"smiles": "CC(C)(C#N)C(C)(C)C#N", "values": [
      {"measurement": "mutagenic call", "setting": "Test System: AMES SALMONELLA TYPHIMURIUM, Strain/Indicator: TA97, Metabolic Activation: HAMSTER, LIVER, S-9, AROCLOR 1254 (10 OR 30%), Method: PREINCUBATION", "value": "inactive; negative"},
      {"measurement": "mutagenic call", "setting": "Test System: AMES SALMONELLA TYPHIMURIUM, Strain/Indicator: TA97, Metabolic Activation: NONE, Method: PREINCUBATION", "value": "inactive; negative"},
      {"measurement": "mutagenic call", "setting": "Test System: AMES SALMONELLA TYPHIMURIUM, Strain/Indicator: TA97, Metabolic Activation: RAT, LIVER, S-9, AROCLOR 1254 (10 OR 30%), Method: PREINCUBATION", "value": "inactive; negative"},
      {"measurement": "mutagenic call", "setting": "Test System: AMES SALMONELLA TYPHIMURIUM, Strain/Indicator: TA97, Method: PREINCUBATION", "value": "inactive; negative"},
      {"measurement": "mutagenic call", "setting": "Test System: AMES SALMONELLA TYPHIMURIUM, Strain/Indicator: TA98, Metabolic Activation: HAMSTER, LIVER, S-9, AROCLOR 1254 (10 OR 30%), Method: PREINCUBATION", "value": "inactive; negative"},
      {"measurement": "mutagenic call", "setting": "Test System: AMES SALMONELLA TYPHIMURIUM, Strain/Indicator: TA98, Metabolic Activation: HAMSTER, LIVER, S-9, AROCLOR 1254, Method: STANDARD PLATE", "value": "inactive; negative"},
      {"measurement": "mutagenic call", "setting": "Test System: AMES SALMONELLA TYPHIMURIUM, Strain/Indicator: TA98, Metabolic Activation: NONE, Method: PREINCUBATION", "value": "inactive; negative"},
      {"measurement": "mutagenic call", "setting": "[1]", "value": "inactive; negative"},
      {"measurement": "mutagenic call", "setting": "Test System: AMES SALMONELLA TYPHIMURIUM, Strain/Indicator: TA98, Metabolic Activation: RAT, LIVER, S-9, AROCLOR 1254 (10 OR 30%), Method: PREINCUBATION", "value": "inactive; negative"},
      {"measurement": "mutagenic call", "setting": "Test System: AMES SALMONELLA TYPHIMURIUM, Strain/Indicator: TA98, Metabolic Activation: RAT, LIVER, S-9, AROCLOR 1254, Method: STANDARD PLATE", "value": "inactive; negative"},
      {"measurement": "mutagenic call", "setting": "Test System: AMES SALMONELLA TYPHIMURIUM, Strain/Indicator: TA98, Method: PREINCUBATION", "value": "inactive; negative"},
      {"measurement": "mutagenic call", "setting": "Test System: AMES SALMONELLA TYPHIMURIUM, Strain/Indicator: TA100, Metabolic Activation: HAMSTER, LIVER, S-9, AROCLOR 1254 (10 OR 30%), Method: PREINCUBATION", "value": "inactive; negative"},
      {"measurement": "mutagenic call", "setting": "Test System: AMES SALMONELLA TYPHIMURIUM, Strain/Indicator: TA100, Metabolic Activation: HAMSTER, LIVER, S-9, AROCLOR 1254, Method: STANDARD PLATE", "value": "inactive; negative"},
      {"measurement": "mutagenic call", "setting": "Test System: AMES SALMONELLA TYPHIMURIUM, Strain/Indicator: TA100, Metabolic Activation: NONE, Method: PREINCUBATION", "value": "inactive; negative"},
      {"measurement": "mutagenic call", "setting": "[2]", "value": "inactive; negative"},
      {"measurement": "mutagenic call", "setting": "Test System: AMES SALMONELLA TYPHIMURIUM, Strain/Indicator: TA100, Metabolic Activation: RAT, LIVER, S-9, AROCLOR 1254 (10 OR 30%), Method: PREINCUBATION", "value": "inactive; negative"},
      {"measurement": "mutagenic call", "setting": "Test System: AMES SALMONELLA TYPHIMURIUM, Strain/Indicator: TA100, Metabolic Activation: RAT, LIVER, S-9, AROCLOR 1254, Method: STANDARD PLATE", "value": "inactive; negative"},
      {"measurement": "mutagenic call", "setting": "Test System: AMES SALMONELLA TYPHIMURIUM, Strain/Indicator: TA100, Method: PREINCUBATION", "value": "inactive; negative"},
      {"measurement": "mutagenic call", "setting": "Test System: AMES SALMONELLA TYPHIMURIUM, Strain/Indicator: TA102, Metabolic Activation: NONE, Method: PREINCUBATION", "value": "inactive; negative"},
      {"measurement": "mutagenic call", "setting": "Test System: AMES SALMONELLA TYPHIMURIUM, Strain/Indicator: TA102, Method: PREINCUBATION", "value": "inactive; negative"},
      {"measurement": "mutagenic call", "setting": "Test System: AMES SALMONELLA TYPHIMURIUM, Strain/Indicator: TA1535, Metabolic Activation: HAMSTER, LIVER, S-9, AROCLOR 1254 (10 OR 30%), Method: PREINCUBATION", "value": "inactive; negative"},
      {"measurement": "mutagenic call", "setting": "Test System: AMES SALMONELLA TYPHIMURIUM, Strain/Indicator: TA1535, Metabolic Activation: HAMSTER, LIVER, S-9, AROCLOR 1254, Method: STANDARD PLATE", "value": "inactive; negative"},
      {"measurement": "mutagenic call", "setting": "Test System: AMES SALMONELLA TYPHIMURIUM, Strain/Indicator: TA1535, Metabolic Activation: NONE, Method: PREINCUBATION", "value": "inactive; negative"},
      {"measurement": "mutagenic call", "setting": "Test System: AMES SALMONELLA TYPHIMURIUM, Strain/Indicator: TA1535, Metabolic Activation: NONE, Method: STANDARD PLATE", "value": "inactive; negative"},
      {"measurement": "mutagenic call", "setting": "Test System: AMES SALMONELLA TYPHIMURIUM, Strain/Indicator: TA1535, Metabolic Activation: RAT, LIVER, S-9, AROCLOR 1254 (10 OR 30%), Method: PREINCUBATION", "value": "inactive; negative"},
      {"measurement": "mutagenic call", "setting": "Test System: AMES SALMONELLA TYPHIMURIUM, Strain/Indicator: TA1535, Metabolic Activation: RAT, LIVER, S-9, AROCLOR 1254, Method: STANDARD PLATE", "value": "inactive; negative"},
      {"measurement": "mutagenic call", "setting": "Test System: AMES SALMONELLA TYPHIMURIUM, Strain/Indicator: TA1537, Metabolic Activation: NONE, Method: STANDARD PLATE", "value": "inactive; negative"},
      {"measurement": "mutagenic call", "setting": "Test System: AMES SALMONELLA TYPHIMURIUM, Strain/Indicator: TA1537, Metabolic Activation: RAT, LIVER, S-9, AROCLOR 1254, Method: STANDARD PLATE", "value": "inactive; negative"},
      {"measurement": "mutagenic call", "setting": "Test System: AMES SALMONELLA TYPHIMURIUM, Strain/Indicator: TA1538, Metabolic Activation: HAMSTER, LIVER, S-9, AROCLOR 1254, Method: STANDARD PLATE", "value": "inactive; negative"},
      {"measurement": "mutagenic call", "setting": "Test System: AMES SALMONELLA TYPHIMURIUM, Strain/Indicator: TA1538, Metabolic Activation: NONE, Method: STANDARD PLATE", "value": "inactive; negative"},
      {"measurement": "mutagenic call", "setting": "Test System: AMES SALMONELLA TYPHIMURIUM, Strain/Indicator: TA1538, Metabolic Activation: RAT, LIVER, S-9, AROCLOR 1254, Method: STANDARD PLATE", "value": "inactive; negative"},
      {"measurement": "mutagenic call", "setting": "Test System: MOUSE LYMPHOMA, Strain/Indicator: L5178Y (TK+/TK-), Metabolic Activation: NONE, Method: SUSPENSION/PLATE", "value": "inactive; negative. reevaluation of results: negative"},
      {"measurement": "mutagenic call", "setting": "Test System: MOUSE LYMPHOMA, Strain/Indicator: L5178Y (TK+/TK-), Metabolic Activation: RAT, LIVER, S-9, AROCLOR 1254, Method: SUSPENSION/PLATE", "value": "inactive; negative. reevaluation of results: negative"}
    ]},
    {"smiles": "CC(=O)c1ccco1", "values": [
      {"measurement": "mutagenic call", "setting": "[1]", "value": "inactive; negative"},
      {"measurement": "mutagenic call", "setting": "Test System: AMES SALMONELLA TYPHIMURIUM, Strain/Indicator: TA98, Metabolic Activation: S-9, Method: STANDARD PLATE", "value": "active; positive"},
      {"measurement": "mutagenic call", "setting": "[2]", "value": "inactive; negative"},
      {"measurement": "mutagenic call", "setting": "Test System: AMES SALMONELLA TYPHIMURIUM, Strain/Indicator: TA100, Metabolic Activation: S-9, Method: STANDARD PLATE", "value": "inactive; negative"}
    ]},
    {"smiles": "Nc1ccc(-c2cc(Cl)c(N)cc2[N+](=O)[O-])cc1Cl", "values": [
      {"measurement": "mutagenic call", "setting": "Test System: Ames Salmonella typhimurium, Strain/Indicator: TA98, Metabolic Activation: None, Method: Preincubation", "value": "active; positive. weak response."},
      {"measurement": "mutagenic call", "setting": "Test System: Ames Salmonella typhimurium, Strain/Indicator: TA98, Metabolic Activation: Rat, Liver, S-9, Phenobarbital and 5,6-benzoflavone, Method: Preincubation", "value": "active; positive"},
      {"measurement": "mutagenic call", "setting": "Test System: Ames Salmonella typhimurium, Strain/Indicator: TA100, Metabolic Activation: None, Method: Preincubation", "value": "inactive; negative"},
      {"measurement": "mutagenic call", "setting": "Test System: Ames Salmonella typhimurium, Strain/Indicator: TA100, Metabolic Activation: Rat, Liver, S-9, Phenobarbital and 5,6-benzoflavone, Method: Preincubation", "value": "active; positive. weak response."},
      {"measurement": "mutagenic call", "setting": "Test System: Ames Salmonella typhimurium, Strain/Indicator: YG1024, Metabolic Activation: None, Method: Preincubation", "value": "active; positive"},
      {"measurement": "mutagenic call", "setting": "Test System: Ames Salmonella typhimurium, Strain/Indicator: YG1024, Metabolic Activation: Rat, Liver, S-9, Phenobarbital and 5,6-benzoflavone, Method: Preincubation", "value": "active; positive"},
      {"measurement": "mutagenic call", "setting": "Test System: Ames Salmonella typhimurium, Strain/Indicator: YG1029, Metabolic Activation: None, Method: Preincubation", "value": "inactive; negative"},
      {"measurement": "mutagenic call", "setting": "Test System: Ames Salmonella typhimurium, Strain/Indicator: YG1029, Metabolic Activation: Rat, Liver, S-9, Phenobarbital and 5,6-benzoflavone, Method: Preincubation", "value": "active; positive. weak response."}
    ]}
  ]
}
